US20230088774A1, “Herbicide Combinations Comprising Glufosinate and Oxadiazon” (BASF SE, priority 2020, published 2023)

Key:
Settings in all cases: 504 h
[1] = system: Echinochloa crus-galli (ECHCG); assay: Greenhouse post-emergence weed control, barnyardgrass; assay type: in vivo
Description: (§1) For post-emergence treatments, glufosinate and oxadiazon, which had been suspended in water, were applied using spray nozzles providing fine to coarse droplets.
(§2) The herbicide compounds applied in the examples were used as experimental or commercially available solo or premix formulations which have been diluted with tap water to a suitable concentration. Glufosinate was used as a commercial SL formulation containing 280 g ai/l of glufosinate (Liberty 280 SL, BASF). While the PPO herbicide Ronstar Flo containing 380 g ai/l oxadiazon was used (Ronstar Flo, Bayer) formulation.
(§3) The evaluation for plant injury or damage caused by the chemical compositions was carried out using a scale from 0-100% when compared with the untreated control plants. Here, 0 means no damage and 100 means complete destruction of the plants.
(§4) 22., E=X+Y−(X*Y/100), where
(§5) X=effect in percent using herbicide A at an application rate of a;
(§6) Y=effect in percent using herbicide B at an application rate of b;
(§7) E=expected effect (in %) of A+B at application rates a+b.
(§8) The value E corresponds to the effect (plant damage or injury) which is to be expected if the activity of the individual compounds is just additive. If the observed effect is higher than the value E calculated according to Colby, a synergistic effect is present. […]

[2] = system: Lolium multiflorum (LOLMU); assay: Greenhouse post-emergence weed control, Italian ryegrass; assay type: in vivo
Description: as §1, §2, §3, §4, §5, §6, §7, §8

[3] = system: Amaranthus tamariscinus (AMATA); assay: Greenhouse post-emergence weed control, common waterhemp; assay type: in vivo
Description: as §1, §2, §3, §4, §5, §6, §7, §8

[4] = system: Amaranthus Palmerii (AMAPA); assay: Greenhouse post-emergence weed control, Palmer amaranth; assay type: in vivo, Amaranthus palmeri
Description: as §1, §2, §3, §4, §5, §6, §7, §8

[5] = post-emergence, read-out: Solo Glufosinate % activity

Row | Compound | inhibition at 0.8 g/ha ([1]; ECHCG, 0.8 g ai/ha post-emergence, 1% (v/v) MSO, 21 DAT, scale 0-100% injury, read-out: Solo Oxadiazon % activity) | inhibition at 0.8 g/ha ([2]; LOLMU, 0.8 g ai/ha post-emergence, 1% (v/v) MSO, 21 DAT, scale 0-100% injury, read-out: Solo Oxadiazon % activity) | inhibition at 0.8 g/ha ([3]; AMATA, 0.8 g ai/ha post-emergence, 1% (v/v) MSO, 21 DAT, scale 0-100% injury, read-out: Solo Oxadiazon % activity) | inhibition at 0.8 g/ha ([4]; AMAPA, 0.8 g ai/ha post-emergence, 1% (v/v) MSO, 21 DAT, scale 0-100% injury, read-out: Solo Oxadiazon % activity) | inhibition at 327 g/ha [1, 5] | inhibition at 327 g/ha [2, 5] | inhibition at 327 g/ha [3, 5] | inhibition at 327 g/ha [4, 5]
1 | CC(C)Oc1cc(-n2nc(C(C)(C)C)oc2=O)c(Cl)cc1Cl [Oxadiazon] | 30% | 28% | 28% | 27% |  |  |  | 
2 | CP(=O)(O)CCC(N)C(=O)O (racemic) [Glufosinate, (2RS)-2-amino-4-[hydroxy(methyl)phosphinoyl]butyric acid] |  |  |  |  | 40% | 33% | 93% | 94%
